Results: article PMC6162703, “Interaction of 2′R-ochratoxin A with Serum Albumins: Binding Site, Effects of Site Markers, Thermodynamics, Species Differences of Albumin-binding, and Influence of Albumin on Its Toxicity in MDCK Cells” (Toxins, 2018)
Where “and” joins values, the source holds several entries; their conditions need not be identical. Equal entries are not always repeated.

Experiments:
[1] = target: porcine serum albumin (PSA) (Sus scrofa, UniProt P08835); test: Fluorescence spectroscopy of 2′R-OTA/OTA-PSA complex (binding constant by Hyperquad, fluorescence enhancement); conditions: λem = 447 nm; for Kd: K in L/mol, PBS pH 7.4, 25 °C
Experimental: (§1) To test this hypothesis, the fluorescence emission spectra of 2′R-OTA (Figure 7A) and OTA (Figure 7B) were recorded in the absence and presence of albumins from different species, including human (HSA), bovine (BSA), porcine (PSA), and rat (RSA) serum albumins (λex = 394 nm).
(§2) However, excitation of the same samples at 394 nm leads to the excitation of both free and albumin-bound 2′R-OTA [23, 24]. […] Binding constants of 2′R-OTA-albumin complexes were determined by the Hyperquad program, based on the fluorescence intensities measured at 447 nm (Figure 8C,D).
(§3) Fluorescence spectroscopic analyses, including anisotropy measurements, were carried out employing a Hitachi F-4500 fluorescence spectrophotometer. Spectroscopic measurements were performed in phosphate buffered saline (PBS, pH 7.4) at 25 °C in the presence of air. Fluorescence emission spectrum of 2′R-OTA (1 µM) was recorded in the presence of increasing concentrations of albumin (0.0, 0.1, 0.25, 0.5, 0.75, 1.0, 1.25, 1.5, 2.0, 3.0 and 5.0 µM) using 295 and 394 nm as excitation wavelengths. At 394 nm, we excited directly 2′R-OTA and its albumin complex. However, using 295 nm excitation wavelength, albumin-bound 2′R-OTA was excited as a result of the energy transfer between albumins and 2′R-OTA [23, 31].
(§4) Binding constants (K) of mycotoxin-albumin complexes were calculated by non-linear fitting, using the Hyperquad2006 program package (Protonic Software) as described in previous studies. The stoichiometry of 2′R-OTA-albumin complexes was calculated based on the model associated with the lowest standard deviation.

[2] = target: bovine serum albumin (BSA) (Bos taurus, UniProt P02769); test: Fluorescence spectroscopy of 2′R-OTA/OTA-BSA complex (binding constant by Hyperquad, fluorescence enhancement); conditions: for Kd: K in L/mol, PBS pH 7.4, 25 °C
Experimental: as §1, §2, §3, §4

[3] = system: IHKE and HepG2 cell lines; conditions: in vitro studies; cited from earlier work
HSA [4] = target: T1, HSA (Homo sapiens, UniProt P02768); conditions: cited from earlier work
T1 construct: purchased Sigma-Aldrich

rat serum albumin (RSA) = rat serum albumin (RSA) (Rattus norvegicus, UniProt P02770); test: Fluorescence spectroscopy of 2′R-OTA/OTA-RSA complex (binding constant by Hyperquad, fluorescence enhancement); conditions: for Kd: K in L/mol, PBS pH 7.4, 25 °C
Experimental: as §1, §2, §3, §4

MDCK cells [5] = test: Co-treatment of MDCK cells with OTA and 2′R-OTA (ATP levels/well); assay type: cell-based, canine; conditions: sub-toxic 2′R-OTA concentrations, 24 h
Experimental: Since 2′R-OTA appears in the circulation together with OTA, the toxic action of OTA in the presence of increasing 2′R-OTA concentrations was also tested. Both mycotoxins occupy Site I as their primary binding sites in albumin, therefore, 2′R-OTA may able to displace OTA from HSA, resulting in the increased cellular uptake and cytotoxicity of OTA in the presence of 2′R-OTA. Because 40 g/L HSA completely abolished the acute toxic action of ochratoxins, co-treatment of MDCK cells with OTA and 2′R-OTA was investigated without albumin and in the presence of 10% FBS. ATP levels/well were quantified after 24 h incubation. […] In the presence of FBS (Figure 10B), the 2′R-OTA-induced further loss in cell viability may be partly attributed to the displacement of OTA from albumin by 2′R-OTA. […] Therefore, other toxicokinetic and/or toxicodynamic mechanism(s) may be involved. Despite its relatively lower toxicity, when simultaneously present 2′R-OTA with OTA, 2′R-OTA can increase the effect of OTA.
MDCK (Madin-Darby canine kidney epithelial cell line, ATCC: CCL-34) cell culture was maintained in DMEM with 10% FBS, penicillin (100 U/mL), and streptomycin (100 µg/mL) at 37 °C in a humidified environment (5% CO2). […] After 24 h incubation, cell viability was evaluated based on cellular ATP and total protein levels. […]

HSA [6] = target: T1, HSA; test: Thermodynamics of 2′R-OTA-HSA complex formation (van’t Hoff, six temperatures); assay type: binding
Text: Since thermodynamic data give a deeper insight into the nature of protein-ligand interactions (including binding forces are involved in the complex formation), the binding ability of 2′R-OTA towards HSA was also examined at different temperatures. According to the van’t Hoff equation (Equation (2)), the logK values expressed as the function of the appropriate reciprocal temperatures show good linearity (Figure 6).
For the deeper insight into 2′R-OTA-HSA interaction, binding constants of mycotoxin-albumin complexes were also determined at six different temperatures (298, 301, 304, 307, 310 and 313 K). The binding constants were determined by the Hyperquad2006 program package, using 394 and 447 nm as excitation and emission wavelengths, respectively. Thermodynamic parameters associated to the complex formation between 2′R-OTA and HSA were determined based on the van ’t Hoff equation: (2) logK=−ΔG /RT=−ΔH/2.303RT+ΔS/2.303R where ΔG, ΔH, and ΔS denote the Gibbs free energy, enthalpy, and entropy changes of the binding reaction, respectively; while R is the gas constant and T refers the temperature.

[7] = target: human serum albumin (HSA) (Homo sapiens, UniProt P02768); test: Fluorescence spectroscopy of 2′R-OTA-HSA complex (binding constant by Hyperquad, fluorescence enhancement)
Experimental: as §1, §2, §3, §4

MDCK cells [8] = assay type: cell-based, canine; conditions: 24 h; for effect on the concentration of ATP and total protein: 0–50 µM
Text: Similarly to OTA, 2′R-OTA also forms very stable complexes with albumins (Table 2). Therefore, it was reasonable to hypothesize that the presence of albumin may decrease the 2′R-OTA-induced toxicity in cell experiments, due to the entrapment of the mycotoxin in the cell medium by albumin. To test the influence of albumin on the in vitro effects of ochratoxins, the acute cellular toxicity of 2′R-OTA and OTA was investigated in the absence and presence of HSA and fetal bovine serum (FBS). MDCK kidney cells were treated with the mycotoxins at increasing concentrations (0–50 µM) for 24 h with and without 10% FBS or 40 g/L HSA. Ten percent FBS is commonly used in cell culture media (it yields approximately 3.5 g/L final concentration of BSA) in cell experiments, whereas approximately 40 g/L HSA circulates in the human blood. The mycotoxin-induced loss of cell viability was evaluated based on ATP and total protein levels. […] Under the applied conditions, the presence of 10% FBS or 40 g/L HSA (without ochratoxins) had no significant effect on cell viability (data not shown). […] The weaker effect of FBS can be attributed to the lower BSA content of the cell medium (3.5 g/L BSA verses 40 g/L HSA). Since albumins form very stable complexes with both 2′R-OTA and OTA, albumin likely reduces the cellular uptake of these mycotoxins, resulting in their lower cellular toxicity.
MDCK (Madin-Darby canine kidney epithelial cell line, ATCC: CCL-34) cell culture was maintained in DMEM with 10% FBS, penicillin (100 U/mL), and streptomycin (100 µg/mL) at 37 °C in a humidified environment (5% CO2). Cells were trypsinized and plated in 96-well sterile plastic plates (approximately 10^4 cells/well) for overnight pre-incubation. Next day, the culture medium was replaced with fresh one (with or without 10% FBS or 40 g/L HSA), then cells were treated with increasing concentrations of 2′R-OTA and/or OTA (0, 1, 5, 10, 20 and 50 µM; in 150 µL medium/well). After 24 h incubation, cell viability was evaluated based on cellular ATP and total protein levels. […]

[9] = humans; cited from earlier work
[10] = humans; cited from earlier work; remark: listed apart in the source
HSA [11] = target: T1, HSA; assay type: binding; conditions: 1.0 µM 2′R-OTA, 1.5 µM HSA, site marker 0–30 µM, PBS pH 7.4
[12] = 1 µM mycotoxin, 5 µM albumin, PBS, λex = 394 nm
[13] = both excitation wavelengths (295 or 394 nm)

bovine serum albumin (BSA), sequence (P02769 25-607): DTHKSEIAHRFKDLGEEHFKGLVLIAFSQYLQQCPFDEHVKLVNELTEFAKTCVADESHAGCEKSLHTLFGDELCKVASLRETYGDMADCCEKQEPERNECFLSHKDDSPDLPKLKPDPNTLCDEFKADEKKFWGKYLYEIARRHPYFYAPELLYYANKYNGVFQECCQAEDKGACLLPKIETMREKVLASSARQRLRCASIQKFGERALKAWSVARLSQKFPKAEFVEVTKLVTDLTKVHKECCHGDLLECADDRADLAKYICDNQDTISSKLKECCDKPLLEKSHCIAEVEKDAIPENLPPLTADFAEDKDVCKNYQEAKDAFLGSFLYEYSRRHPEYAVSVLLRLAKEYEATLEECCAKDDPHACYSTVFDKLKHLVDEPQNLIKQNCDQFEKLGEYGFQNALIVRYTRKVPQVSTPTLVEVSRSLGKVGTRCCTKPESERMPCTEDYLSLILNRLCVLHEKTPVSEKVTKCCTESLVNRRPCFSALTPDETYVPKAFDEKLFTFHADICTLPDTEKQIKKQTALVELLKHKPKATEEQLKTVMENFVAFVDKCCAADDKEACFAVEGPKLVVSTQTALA
porcine serum albumin (PSA), sequence (P08835 25-607): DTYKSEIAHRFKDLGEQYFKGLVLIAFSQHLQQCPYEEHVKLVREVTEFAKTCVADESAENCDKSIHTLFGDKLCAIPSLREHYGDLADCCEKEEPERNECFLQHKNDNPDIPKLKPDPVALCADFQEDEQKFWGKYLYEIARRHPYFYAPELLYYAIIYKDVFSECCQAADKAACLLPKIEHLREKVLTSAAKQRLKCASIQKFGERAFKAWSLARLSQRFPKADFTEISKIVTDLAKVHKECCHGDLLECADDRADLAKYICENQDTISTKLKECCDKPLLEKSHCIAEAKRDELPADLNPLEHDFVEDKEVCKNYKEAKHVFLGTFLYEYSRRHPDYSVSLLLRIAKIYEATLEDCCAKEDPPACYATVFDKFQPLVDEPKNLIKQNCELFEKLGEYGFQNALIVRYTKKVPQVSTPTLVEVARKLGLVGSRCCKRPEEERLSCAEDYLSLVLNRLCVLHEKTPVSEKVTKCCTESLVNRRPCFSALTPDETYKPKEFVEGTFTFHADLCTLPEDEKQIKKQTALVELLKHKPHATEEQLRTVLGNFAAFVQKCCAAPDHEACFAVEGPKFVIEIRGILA
T1 sequence (P02768 25-609): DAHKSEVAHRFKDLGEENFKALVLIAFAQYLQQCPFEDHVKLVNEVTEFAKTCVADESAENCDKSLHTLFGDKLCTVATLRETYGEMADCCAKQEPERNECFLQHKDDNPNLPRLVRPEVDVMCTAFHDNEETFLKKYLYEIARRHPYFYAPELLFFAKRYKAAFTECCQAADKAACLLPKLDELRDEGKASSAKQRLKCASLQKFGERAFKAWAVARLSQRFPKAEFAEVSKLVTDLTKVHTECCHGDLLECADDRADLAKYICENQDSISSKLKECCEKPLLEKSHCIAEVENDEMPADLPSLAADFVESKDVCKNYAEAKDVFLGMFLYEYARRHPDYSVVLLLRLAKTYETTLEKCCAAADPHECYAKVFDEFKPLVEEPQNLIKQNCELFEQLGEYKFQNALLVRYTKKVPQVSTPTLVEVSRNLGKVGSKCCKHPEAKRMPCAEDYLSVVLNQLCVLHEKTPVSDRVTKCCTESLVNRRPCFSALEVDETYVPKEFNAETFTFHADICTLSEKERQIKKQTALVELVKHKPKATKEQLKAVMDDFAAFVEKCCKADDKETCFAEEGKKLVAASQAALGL
human serum albumin (HSA), sequence (P02768 25-609): as above
rat serum albumin (RSA), sequence (P02770 25-608): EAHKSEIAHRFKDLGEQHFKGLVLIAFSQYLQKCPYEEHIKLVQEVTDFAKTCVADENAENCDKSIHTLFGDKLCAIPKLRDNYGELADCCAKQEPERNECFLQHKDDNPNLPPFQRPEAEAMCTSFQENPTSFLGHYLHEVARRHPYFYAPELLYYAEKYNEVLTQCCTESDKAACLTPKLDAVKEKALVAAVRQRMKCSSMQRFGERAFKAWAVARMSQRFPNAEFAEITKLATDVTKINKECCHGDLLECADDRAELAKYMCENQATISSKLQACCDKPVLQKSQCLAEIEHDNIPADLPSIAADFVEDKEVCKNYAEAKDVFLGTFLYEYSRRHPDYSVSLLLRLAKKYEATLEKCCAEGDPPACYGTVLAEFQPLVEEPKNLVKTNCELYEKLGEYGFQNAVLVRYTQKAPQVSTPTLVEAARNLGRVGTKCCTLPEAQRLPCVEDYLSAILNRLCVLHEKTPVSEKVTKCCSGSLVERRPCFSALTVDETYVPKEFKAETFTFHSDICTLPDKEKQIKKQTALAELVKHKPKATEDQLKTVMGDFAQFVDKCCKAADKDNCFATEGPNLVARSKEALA

C[C@@H]1Cc2c(Cl)cc(C(=O)N[C@H](Cc3ccccc3)C(=O)O)c(O)c2C(=O)O1 [2′R-OTA, 2′R-ochratoxin A]
Kd ([1]; logK (± SD) of binding constant, λex = 295 nm): 617 nM
Kd ([1]; logK (±SD) of binding constant, λex = 394 nm): 145 nM
I/I0 (±SD), enhancement of the fluorescence of 2′R-OTA by complex formation ([1]; λex = 394 nm, PBS): 1.98 ± 0.05
fluorescence enhancement by BSA compared with other albumins [2, 12]: highest emission signal
I/I0 (±SD), enhancement of the fluorescence of 2′R-OTA by complex formation ([2]; BSA, λex = 394 nm, λem = 447 nm, PBS): 2.48 ± 0.06
affinity to BSA relative to HSA and PSA [2, 13]: 2–3 times higher
Kd ([2]; logK (± SD) of binding constant, BSA, λex = 295 nm, λem = 447 nm): 214 nM
Kd ([2]; logK (±SD) of binding constant, BSA, λex = 394 nm, λem = 447 nm): 47.9 nM
acute toxicity compared with OTA [3]: lower acute toxicity
affinity to HSA lower than that of OTA (HSA [4]): approximately tenfold
binding constant K of the complex with HSA (HSA [4]): ~ 2 × 10^6 L/mol and 2 × 10^6 L/mol
binding constant of 2′R-OTA-HSA complex higher than that of aflatoxin-HSA complexes (HSA [4]): 100 fold
I/I0 (±SD), enhancement of the fluorescence of 2′R-OTA by complex formation (rat serum albumin (RSA); RSA, λex = 394 nm, λem = 447 nm, PBS): 2.22 ± 0.09
affinity to RSA relative to HSA and PSA (rat serum albumin (RSA); [13]): 2–3 times higher
Kd (rat serum albumin (RSA); logK (± SD) of binding constant, RSA, λex = 295 nm, λem = 447 nm): 355 nM
Kd (rat serum albumin (RSA); logK (±SD) of binding constant, RSA, λex = 394 nm, λem = 447 nm): 64.6 nM
effect of 2′R-OTA on the toxic effect of OTA (MDCK cells [5]; absence of FBS, 1 μM OTA): increased significantly
effect of 2′R-OTA on the toxic effect of OTA (MDCK cells [5]; presence of 10% FBS, 20 μM OTA): increased significantly
ΔH of 2′R-OTA-HSA complex formation (HSA [6]; 298-313 K): -2.02 kcal/mol
ΔS of 2′R-OTA-HSA complex formation (HSA [6]; 298-313 K): 102.62 J K^-1 mol^-1
ΔG of 2′R-OTA-HSA complex formation (HSA [6]; 298K (room-temperature)): -9.331 kcal/mol
Kd [7]: 525 nM
I/I0 (±SD), enhancement of the fluorescence of 2′R-OTA by complex formation ([7]; HSA, λex = 394 nm, λem = 447 nm, PBS): 2.35 ± 0.07
Kd at 1 µM ([7]; human, human serum albumin (HSA) in PBS, pH 7.4): 229 nM
effect on the concentration of ATP and total protein (MDCK cells [8]): dose-dependent, significant decreases
cytotoxicity relative to OTA (MDCK cells [8]): approximately 10 times lower

C[C@@H]1Cc2c(Cl)cc(C(=O)N[C@@H](Cc3ccccc3)C(=O)O)c(O)c2C(=O)O1 [OTA, Ochratoxin A]
stability of OTA-HSA complex higher than that of the complex with bovine albumin (HSA [4]): approximately tenfold
stability of OTA-HSA complex higher than that of the complex with rat albumin (HSA [4]): ~30 fold
affinity order toward albumins of different species (HSA [4]; previous investigations): Human > bovine > porcine > rat
fluorescence enhancement by RSA compared with other albumins (rat serum albumin (RSA); [12]): highest fluorescence
plasma protein binding [9]: 99.8%
effect on the concentration of ATP and total protein (MDCK cells [8]): dose-dependent, significant decreases
plasma elimination half-life [10]: approximately one month

C=CC1=C(C)/C(=C/c2[nH]c(Cc3[nH]c(/C=C4\NC(=O)C(C)=C4C=C)c(C)c3CCC(=O)O)c(CCC(=O)O)c2C)NC1=O [bilirubin]
displacement of 2′R-OTA from HSA by the site marker (HSA [11]): strongly displaced

CC1=C2C(=CO[C@H](C)[C@H]2C)C(O)=C(C(=O)O)C1=O [citrinin]
binding constant K of the complex with HSA (HSA [4]): 200000 L/mol

CN(C)c1ccc(N=Nc2ccc(S(=O)(=O)[O-])cc2)cc1.[Na+] [methyl orange]
affinity to HSA compared with another ligand (HSA [4]): much lower affinity to HSA than bilirubin
displacement of 2′R-OTA from HSA by the site marker (HSA [11]): strongly displaced

C[C@H]1CCCC(=O)CCC/C=C/c2cc(O)cc(O)c2C(=O)O1 [zearalenone]
binding constant K of the complex with HSA (HSA [4]): 10^5 L/mol
